Patent publication US20190105367A1, “ANTIMICROBIAL 4-OXOQUINOLIZINES” (Emergent Product Development Gaithersburg Inc., priority 2011, published 2019)
Values after ≈ are worked out from the molar mass of the structure shown. Where two headings read alike, the source gives them in different places.

What was measured:
B. thailandensis = assay type: cell-based, Burkholderia thailandensis; conditions: pH 7 vs pH 5
S. aureus 25923 = assay: MIC, standard panel of Gram-positive and Gram-negative strains (Example 2); assay type: cell-based; conditions: Staphylococcus aureus
S. aureus 25923 HS = assay: as above; assay type: cell-based; conditions: Staphylococcus aureus, read-out: MIC S. aureus 25923 HS
S. epidermis 12228 = assay: as above; assay type: cell-based, Staphylococcus epidermis; conditions: Staphylococcus
E. faecalis 29212 = assay: as above; assay type: cell-based, Enterococcus faecalis
E. cloacae 13047 = assay: as above; assay type: cell-based, Enterobacter cloacae
A. baumanii 19606 = assay: as above; assay type: cell-based; conditions: Acinetobacter baumannii
S. aureus SMITH = assay: MIC, panel of quinolone-resistant strains (Example 2); assay type: cell-based; conditions: Staphylococcus aureus, read-out: MIC S. aureus SMITH
S. pneumoniae 49619 = assay: as above; assay type: cell-based, Streptococcus pneumoniae
A. baumannii A390 = assay: MIC without and with sub-inhibitory polymyxin B (Example 4); assay type: cell-based, Acinetobacter baumannii; conditions: +0.06 μg/ml PB, 2nd experiment; for MIC without PB/MIC + PB: A. baumannii A390; for MIC: Acinetobacter baumannii, A390, A. baumannii A390, read-out: MIC
A. baumannii A472 [1] = assay: as above; assay type: cell-based, Acinetobacter baumannii; conditions: for MIC without PB/MIC + PB: A. baumannii A472, ratio; for MIC: Acinetobacter baumannii
A. baumannii A472 [2] = assay: Preliminary MBC without and with sub-inhibitory polymyxin B (Example 4); assay type: cell-based, Acinetobacter baumannii; conditions: Acinetobacter baumannii
A. baumannii A14 = assay: MIC without and with sub-inhibitory polymyxin B (Example 4); assay type: cell-based, Acinetobacter baumannii; conditions: 2nd experiment
Cytotoxicity (Example 7) = assay type: cell-based; conditions: human, HEPG2 V1 cells
Procedure: The 4-oxoquinolizine compounds of the invention preferably have a low cytotoxicity against human cells. […].
Cytotoxicity was determined for the instant 4-oxoquinolizine compounds which show low cytotoxicity. (see Table 17 following). […]

S. aureus 101 = assay: MIC, standard panel of Gram-positive and Gram-negative strains (Example 2); assay type: cell-based; conditions: Staphylococcus aureus
E. faecium 19434 = assay: as above; assay type: cell-based; conditions: Enterococcus faecium
[3] = A472, read-out: MIC +[…] PB, A. baumannii A472, +[…] polymyxin B, 1st experiment
[4] = A472, read-out: MBC +[…] PB, A. baumannii A472, +[…] polymyxin B, preliminary MBC, 1st experiment
[5] = A. baumannii A14, +0.06 μg/ml PB
[6] = Acinetobacter baumannii, A14, A. baumannii A14, without PB, read-out: MIC
[7] = Enterococcus faecalis, 29212; read-out: MIC E. faecalis 29212
[8] = A472, A. baumannii A472, +[…] PB, 2nd experiment, read-out: MIC
[9] = A472, A. baumannii A472, +[…] PB, preliminary MBC, 2nd experiment, read-out: MBC

| SMILES | Dilutions improvement shift on B. thailandensis MIC90 (between pH 7 and pH 5) (B. thailandensis) | MIC (S. aureus 25923 HS) [µg/mL] | MIC (A. baumanii 19606) [µg/mL] | MIC without PB/MIC + PB (A. baumannii A390) | MIC (A. baumannii A390) [µg/mL] | MIC without PB/MIC + PB (A. baumannii A472 [1]; 1st experiment) | MIC (A. baumannii A472 [1]; [3]) [µg/mL] | MBC (A. baumannii A472 [2]; [4]) [µg/mL] | MIC (A. baumannii A14; [5]) [µg/mL] | MIC without PB/MIC + PB (A. baumannii A14; [5]) | MIC (A. baumannii A14; [6]) [µg/mL] | MIC (E. faecalis 29212; [7]) [µg/mL] | IC50 (Cytotoxicity (Example 7)) [µM] | MIC (A. baumannii A472 [1]; [8]) [µg/mL] | MBC (A. baumannii A472 [2]; [9]) [µg/mL] | also measured |
| --- | --- | --- | --- | --- | --- | --- | --- | --- | --- | --- | --- | --- | --- | --- | --- | --- |
| Cc1c(-c2ccc(CN)cc2)c(F)cn2c(=O)c(C(=O)O)cc(C3CC3)c12 [Compound 6, 8-(4-aminomethyl-phenyl)-1-cyclopropyl-7-fluoro-9-methyl-4-oxo-quinolizine-3-carboxylic acid] | No | 0.25 (≈ 0.682 µM) | 0.5 (≈ 1.36 µM) | 8 | 2 (≈ 5.46 µM) | 16 | 0.5 (≈ 1.36 µM) | 0.5 (≈ 1.36 µM) | 4 (≈ 10.9 µM) | 4 | 16 (≈ 43.7 µM) |  |  |  |  | MIC (S. aureus 25923): 0.03 µg/mL (≈ 0.0819 µM); MIC (S. epidermis 12228): 0.03 µg/mL (≈ 0.0819 µM); MIC (E. faecalis 29212; Enterococcus faecalis, 29212, read-out: MIC E. faecalis 29212): 0.125 µg/mL (≈ 0.341 µM); MIC (E. cloacae 13047; Enterobacter cloacae, 13047, read-out: MIC E. cloacae 13047): 0.125 µg/mL (≈ 0.341 µM); MIC (S. aureus SMITH): 0.125 µg/mL (≈ 0.341 µM); MIC (S. pneumoniae 49619; Streptococcus pneumoniae, 49619, read-out: MIC S. pneumoniae 49619): 0.125 µg/mL (≈ 0.341 µM); MIC (A. baumannii A472 [1]; A472): 1 µg/mL (≈ 2.73 µM); MBC (A. baumannii A472 [2]; A472): 1 µg/mL (≈ 2.73 µM) |
| Cc1c(-c2ccc(N)cc2)c(F)cn2c(=O)c(C(=O)O)cc(C3CC3)c12 [Compound 7, 8-(4-amino-phenyl)-1-cyclopropyl-7-fluoro-9-methyl-4-oxo-quinolizine-3-carboxylic acid] | Yes, 4x |  | 0.5 (≈ 1.42 µM) | 128 | 0.125 (≈ 0.355 µM) | ≥128 | ≤ 0.03 | ≤ 0.03 | 2 (≈ 5.68 µM) | 8 | 16 (≈ 45.4 µM) | 0.06 (≈ 0.17 µM) | 150 | ≤ 0.03 | ≤ 0.03 | MIC (S. aureus SMITH; CIP R): 0.25 µg/mL (≈ 0.709 µM); MIC (S. pneumoniae 49619; Streptococcus pneumoniae, 49619, LEV S, read-out: MIC S. pneumoniae 49619): 0.25 µg/mL (≈ 0.709 µM) |
| Cc1c(-c2ccc(N)cc2)ccn2c(=O)c(C(=O)O)cc(C3CC3)c12 [Compound 8, 8-(4-amino-phenyl)-1-cyclopropyl-9-methyl-4-oxo-quinolizine-3-carboxylic acid] |  | 0.25 (≈ 0.748 µM) | 0.125 (≈ 0.374 µM) | 32 | 0.5 (≈ 1.5 µM) | ≥128 | ≤ 0.03 | ≤ 0.03 | 0.5 (≈ 1.5 µM) | 16 | 8 (≈ 23.9 µM) | 0.03 (≈ 0.0897 µM) | 90 | 0.06 (≈ 0.179 µM) | 0.06 (≈ 0.179 µM) | MIC (S. aureus 101): 0.5 µg/mL (≈ 1.5 µM); MIC (E. faecium 19434): 0.5 µg/mL (≈ 1.5 µM); MIC (E. cloacae 13047; Enterobacter cloacae, 13047; read-out: MIC E. cloacae 13047): 0.25 µg/mL (≈ 0.748 µM) |
